Here are results for 2 compounds from PMC8197720, “Targeted radioimmunotherapy with the iodine-131-labeled caerin 1.1 peptide for human anaplastic thyroid cancer in nude mice” (Annals of Nuclear Medicine, 2021).

For one data set, the system named is CAL-62 tumor. The experiment in a line: CAL-62 subcutaneous xenograft treatment experiment with H&E and TUNEL staining. The data set is classed as in vivo, BALB/C nude mice. The note with it: tumor sections after treatment, compared to PBS group. As to the method:
(§1) To reduce the unnecessary thyroid uptake of ^131I, before the in vivo experiments, all nude mice were fed potassium iodide in a concentration of 0.1% for 3 days to saturate the thyroid. CAL-62 tumor-bearing mice were randomly divided into four groups (n = 5 per group) that received one of the following treatments: PBS, F1 only, ^131I-F1, ^131I only. The mice were injected intratumorally with 100 µl PBS containing 8 µg of F1 peptide, 200 µCi of ^131I or 8 µg of F1 peptide labeled with 200 µCi ^131I every 3 days for a total of three times. Then, 3 days after the final treatment, the mice were sacrificed, and the tumors were isolated and weighed.

Data set [1] is described as follows: Body weight of CAL-62 tumor-bearing mice under treatment. The data set is classed as in vivo, BALB/C nude mice. To be noted: intratumoral, 8 µg F1 and/or 200 µCi 131I every 3 days, three times, n = 5, mean ± SD. How it is done:
as §1
Next, we studied whether F1 was able to inhibit CAL-62 cell growth in vivo. Nude mice were subcutaneously injected with 5 × 10^5 CAL-62 cells. When the tumor diameters were close to 6 mm, the mice were treated with 100 µl PBS containing 8 µg of F1 peptide, 200 µCi of ^131I or 8 µg of F1 peptide labeled with 200 µCi ^131I every 3 days for a total of three times. […] The mice were euthanized, and the tumors were isolated and weighed.

Data set [2] deals with cervical cancer cell (TC-1). The note with it: 30 μg of peptide; cited from earlier work. From the text: First, ^131I-F1 was successfully synthesized using the chloramine-T method. […] Furthermore, a subcutaneous xenograft model was used to investigate the antitumor activity of ^131I-F ...

With `[131I-].[Na+]` [^131I, iodine-131], the “H&E staining of tumors (ablation/necrosis of tumor cells)” value with CAL-62 tumor is recorded as “only a few necrosis events”. In data set [1], the “Weight of the mice three days after the final treatment” value is 16.43 ± 1.386 g.
With caerin 1.9 [F3], the “Inhibitory effect on TC-1 in vivo” value in data set [2] is listed as “significant inhibitory effect”.
